Legend:
hSERT L565A = biological target: T1, hSERT L565A (Homo sapiens, UniProt P31645, L565A); assay: ASP^+ binding, hSERT L565A; settings: S2 site mutant, read-out: SYR IC50 for Binding
T1 construct: forward and reverse primers were used to amplify a full-length hSERT; expressed in transfected cells; host or cells: HeLa

hSERT P560G = biological target: T2, hSERT P560G (Homo sapiens, UniProt P31645, P560G); assay: APP^+ uptake, hSERT P560G; type: cell-based; settings: S2 site mutant, read-out: SYR IC50 for Transport
T2 construct: forward and reverse primers were used to amplify a full-length hSERT; expressed in transfected cells; host or cells: HeLa cells, transient, pcDNA3.1
T2 sequence (P31645 whole entry P560G): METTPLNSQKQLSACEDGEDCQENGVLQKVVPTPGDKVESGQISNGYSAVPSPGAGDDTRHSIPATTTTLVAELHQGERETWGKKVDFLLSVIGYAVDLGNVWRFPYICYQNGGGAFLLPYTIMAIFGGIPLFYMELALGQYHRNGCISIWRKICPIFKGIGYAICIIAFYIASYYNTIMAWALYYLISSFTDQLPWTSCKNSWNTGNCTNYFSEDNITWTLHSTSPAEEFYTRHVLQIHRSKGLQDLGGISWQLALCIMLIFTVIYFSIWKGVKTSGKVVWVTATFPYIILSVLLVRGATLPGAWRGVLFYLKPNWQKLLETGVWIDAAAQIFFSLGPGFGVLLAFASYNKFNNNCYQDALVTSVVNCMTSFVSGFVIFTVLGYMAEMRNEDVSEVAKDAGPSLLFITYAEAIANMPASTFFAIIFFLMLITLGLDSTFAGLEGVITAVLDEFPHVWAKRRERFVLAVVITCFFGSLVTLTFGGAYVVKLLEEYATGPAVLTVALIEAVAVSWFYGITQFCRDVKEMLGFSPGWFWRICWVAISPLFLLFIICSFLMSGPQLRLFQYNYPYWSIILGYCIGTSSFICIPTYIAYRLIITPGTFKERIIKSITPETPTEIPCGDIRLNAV

hSERT S559A = biological target: T3, hSERT S559A (Homo sapiens, UniProt P31645, S559A); assay: APP^+ uptake, hSERT S559A; type: cell-based; settings: S2 site mutant, read-out: SYR IC50 for Transport
T3 construct: forward and reverse primers were used to amplify a full-length hSERT; expressed in transfected cells; host or cells: HeLa cells, transient, pcDNA3.1
T3 sequence (P31645 whole entry S559A): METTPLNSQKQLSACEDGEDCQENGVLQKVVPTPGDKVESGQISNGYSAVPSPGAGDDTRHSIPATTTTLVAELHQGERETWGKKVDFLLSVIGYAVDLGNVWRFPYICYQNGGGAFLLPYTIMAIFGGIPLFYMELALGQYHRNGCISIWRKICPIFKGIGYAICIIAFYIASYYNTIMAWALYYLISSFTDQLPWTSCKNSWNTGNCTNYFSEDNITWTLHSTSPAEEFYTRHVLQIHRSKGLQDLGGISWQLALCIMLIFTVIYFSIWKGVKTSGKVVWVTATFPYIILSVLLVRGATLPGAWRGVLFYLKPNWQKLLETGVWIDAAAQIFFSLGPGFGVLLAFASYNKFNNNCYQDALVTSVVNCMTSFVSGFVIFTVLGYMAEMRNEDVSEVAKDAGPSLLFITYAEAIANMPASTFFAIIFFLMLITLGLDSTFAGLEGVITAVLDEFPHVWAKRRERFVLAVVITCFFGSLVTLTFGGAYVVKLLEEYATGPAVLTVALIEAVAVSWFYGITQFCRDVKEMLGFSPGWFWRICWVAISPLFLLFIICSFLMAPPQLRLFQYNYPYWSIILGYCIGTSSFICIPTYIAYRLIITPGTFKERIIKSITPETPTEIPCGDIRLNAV

hSERT = hSERT (Homo sapiens, UniProt P31645); settings: 22 °C
hSERT, sequence (P31645 whole entry): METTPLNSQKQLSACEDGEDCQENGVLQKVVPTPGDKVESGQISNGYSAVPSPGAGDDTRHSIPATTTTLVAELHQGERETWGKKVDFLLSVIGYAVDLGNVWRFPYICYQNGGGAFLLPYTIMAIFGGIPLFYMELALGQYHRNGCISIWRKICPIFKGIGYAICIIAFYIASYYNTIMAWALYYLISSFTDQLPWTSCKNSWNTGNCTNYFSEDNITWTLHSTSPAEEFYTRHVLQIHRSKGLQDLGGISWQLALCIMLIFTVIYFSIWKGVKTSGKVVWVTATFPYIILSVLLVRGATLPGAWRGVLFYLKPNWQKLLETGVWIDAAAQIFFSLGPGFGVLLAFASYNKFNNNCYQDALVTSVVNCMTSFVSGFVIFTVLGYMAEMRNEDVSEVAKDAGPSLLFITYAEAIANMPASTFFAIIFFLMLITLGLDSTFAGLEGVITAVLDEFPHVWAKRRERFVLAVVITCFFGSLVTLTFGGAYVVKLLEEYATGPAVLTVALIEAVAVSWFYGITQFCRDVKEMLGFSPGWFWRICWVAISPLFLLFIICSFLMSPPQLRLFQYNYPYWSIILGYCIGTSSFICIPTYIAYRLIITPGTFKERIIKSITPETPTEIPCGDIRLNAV

hSERT T583A = biological target: T4, hSERT T583A (Homo sapiens, UniProt P31645, T583A); assay: APP^+ uptake, hSERT T583A; type: cell-based; settings: S2 site mutant, read-out: SYR IC50 for Transport
T4 construct: forward and reverse primers were used to amplify a full-length hSERT; expressed in transfected cells; host or cells: HeLa
T4 sequence (P31645 whole entry T583A): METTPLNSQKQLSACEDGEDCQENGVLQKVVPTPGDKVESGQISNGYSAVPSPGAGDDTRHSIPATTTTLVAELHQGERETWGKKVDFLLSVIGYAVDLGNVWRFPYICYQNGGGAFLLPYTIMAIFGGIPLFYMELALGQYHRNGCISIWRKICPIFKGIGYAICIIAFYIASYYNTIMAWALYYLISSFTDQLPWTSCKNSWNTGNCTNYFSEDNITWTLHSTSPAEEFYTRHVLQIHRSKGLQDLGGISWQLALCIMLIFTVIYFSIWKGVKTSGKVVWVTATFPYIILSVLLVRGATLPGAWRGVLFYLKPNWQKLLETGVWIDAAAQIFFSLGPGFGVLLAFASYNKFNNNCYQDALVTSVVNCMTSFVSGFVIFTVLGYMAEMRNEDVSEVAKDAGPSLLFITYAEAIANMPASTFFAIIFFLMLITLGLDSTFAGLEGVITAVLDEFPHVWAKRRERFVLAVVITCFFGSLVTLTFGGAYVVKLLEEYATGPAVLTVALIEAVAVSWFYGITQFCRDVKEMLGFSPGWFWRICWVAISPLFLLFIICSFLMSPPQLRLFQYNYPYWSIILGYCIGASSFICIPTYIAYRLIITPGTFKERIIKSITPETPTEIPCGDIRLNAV

hSERT I172F = biological target: T5, hSERT I172F (Homo sapiens, UniProt P31645, I172F); assay: ASP^+ binding, hSERT I172F; settings: S1 site mutant, read-out: SYR IC50 for Binding
T5 construct: forward and reverse primers were used to amplify a full-length hSERT; expressed in transfected cells; host or cells: HeLa
T5 sequence (P31645 whole entry I172F): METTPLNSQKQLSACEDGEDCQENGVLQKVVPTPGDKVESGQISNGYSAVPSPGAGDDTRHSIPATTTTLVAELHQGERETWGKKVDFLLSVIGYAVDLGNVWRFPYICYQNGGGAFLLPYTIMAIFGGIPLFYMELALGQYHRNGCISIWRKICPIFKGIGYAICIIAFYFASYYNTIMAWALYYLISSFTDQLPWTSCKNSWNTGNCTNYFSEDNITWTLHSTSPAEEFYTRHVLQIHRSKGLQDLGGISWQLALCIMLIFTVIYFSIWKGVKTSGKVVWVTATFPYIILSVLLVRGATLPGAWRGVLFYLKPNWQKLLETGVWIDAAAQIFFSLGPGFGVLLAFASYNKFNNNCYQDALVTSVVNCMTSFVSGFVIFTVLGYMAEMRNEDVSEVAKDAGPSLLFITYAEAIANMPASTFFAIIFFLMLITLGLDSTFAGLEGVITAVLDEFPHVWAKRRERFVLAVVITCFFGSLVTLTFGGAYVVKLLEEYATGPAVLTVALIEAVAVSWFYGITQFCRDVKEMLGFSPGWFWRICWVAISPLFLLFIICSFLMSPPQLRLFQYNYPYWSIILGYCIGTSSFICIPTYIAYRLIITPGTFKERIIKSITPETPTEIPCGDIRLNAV

T1 sequence (P31645 whole entry L565A): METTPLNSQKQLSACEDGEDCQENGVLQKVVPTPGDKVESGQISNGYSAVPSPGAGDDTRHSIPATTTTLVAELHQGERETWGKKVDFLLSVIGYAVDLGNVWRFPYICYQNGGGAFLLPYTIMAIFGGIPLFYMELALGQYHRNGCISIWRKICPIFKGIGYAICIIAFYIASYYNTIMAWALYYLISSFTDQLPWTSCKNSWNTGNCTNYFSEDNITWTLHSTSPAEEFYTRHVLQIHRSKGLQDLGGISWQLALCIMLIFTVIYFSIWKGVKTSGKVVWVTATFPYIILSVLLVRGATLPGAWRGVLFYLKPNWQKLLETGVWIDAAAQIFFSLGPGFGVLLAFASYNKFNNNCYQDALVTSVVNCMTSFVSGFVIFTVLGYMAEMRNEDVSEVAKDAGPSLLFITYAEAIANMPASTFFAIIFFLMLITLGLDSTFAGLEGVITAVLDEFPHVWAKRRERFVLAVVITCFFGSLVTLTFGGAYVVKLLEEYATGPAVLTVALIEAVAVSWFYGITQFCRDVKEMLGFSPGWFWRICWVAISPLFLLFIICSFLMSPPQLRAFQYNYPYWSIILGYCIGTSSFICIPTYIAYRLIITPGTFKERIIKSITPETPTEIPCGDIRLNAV

Compound: COc1cc([C@@H]2OC[C@@H]3[C@H]2CO[C@H]3c2cc(OC)c(O)c(OC)c2)cc(OC)c1O [SYR, (-)-syringaresinol]
- IC50 (hSERT L565A): 21 ± 0.45 µM
- IC50 (hSERT P560G): 5.99 ± 0.96 µM
- IC50 (hSERT S559A): 19.5 ± 1.46 µM
- effect on 5-HT-induced APP^+ efflux (hSERT; 10 μM + 10 μM 5-HT): effectively blocked
- effect on basal APP^+ efflux (hSERT; 10 μM, cells preloaded with APP^+): not by SYR
- IC50 (hSERT T583A): 8.68 ± 1.4 µM
- IC50 (hSERT I172F): 1.51 ± 0.04 µM

Source: PMC11678425, “(-)-Syringaresinol Exerts an Antidepressant-like Activity in Mice by Noncompetitive Inhibition of the Serotonin Transporter” (Pharmaceuticals, 2024)
